Test results: ChEMBL document CHEMBL1201862, “PubChem BioAssay data set” (2004)
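All cell lines were grown in 96-well plates and treated with compound for 48 hours. At the GI50, growth is halved.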 The source made the active and inactive calls. Cut-off read from the data, not from the text of the source: active = GI50 up to about 1.1 µM and inactive = higher.

Experiments:
Assay in all cases: NCI tumour cell line growth inhibition, 48 h
NCI-H460 = system: NCI-H460
K562 = system: K562
COLO 205 = system: COLO 205
RPMI-8226 = system: RPMI-8226
SW-620 = system: SW-620
SN12C = system: SN12C
SF-268 = system: SF-268
HOP-92 = system: HOP-92
SK-MEL-5 = system: SK-MEL-5
NCI-H226 = system: NCI-H226
786-0 = system: 786-0
DU-145 = system: DU-145
IGROV-1 = system: IGROV-1
Hs-578T = system: Hs-578T
Malme-3M = system: Malme-3M
A498 = system: A498
SNB-75 = system: SNB-75
KM12 = system: KM12
HCT-116 = system: HCT-116
OVCAR-4 = system: OVCAR-4
MDA-N = system: MDA-N
CCRF-CEM = system: CCRF-CEM
T47D = system: T47D
SNB-19 = system: SNB-19
NCI-H23 = system: NCI-H23
SF-295 = system: SF-295
SK-OV-3 = system: SK-OV-3
UACC-62 = system: UACC-62
UACC-257 = system: UACC-257
A549 = system: A549
SK-MEL-28 = system: SK-MEL-28
HCT-15 = system: HCT-15
BT-549 = system: BT-549
OVCAR-8 = system: OVCAR-8
U-251 = system: U-251
PC-3 = system: PC-3
HOP-62 = system: HOP-62
CAKI-1 = system: CAKI-1
SR = system: SR
EKVX = system: EKVX
NCI/ADR-RES = system: NCI/ADR-RES
MDA-MB-435 = system: MDA-MB-435
HCC 2998 = system: HCC 2998
UO-31 = system: UO-31
ACHN = system: ACHN
RXF 393 = system: RXF 393
SK-MEL-2 = system: SK-MEL-2
MDA-MB-231 = system: MDA-MB-231
OVCAR-3 = system: OVCAR-3
MCF7 = system: MCF7
TK-10 = system: TK-10
HT-29 = system: HT-29
M14 = system: M14
OVCAR-5 = system: OVCAR-5
MOLT-4 = system: MOLT-4
HL-60 = system: HL-60
SF-539 = system: SF-539
LOX IMVI = system: LOX IMVI
NCI-H522 = system: NCI-H522

## COC(=O)[C@H](Cc1ccccc1)NC(=O)c1ccc(CNC(=O)/C=C/c2cccc(Oc3ccccc3)c2)cc1
NCI-H460
  GI50: 24.9 µM (inactive)
K562
  GI50: 7.08 µM (inactive)
COLO 205
  GI50: 21.3 µM (inactive)
RPMI-8226
  GI50: 28.3 µM (inactive)
SW-620
  GI50: 9.98 µM (inactive)
SN12C
  GI50: 26.1 µM (inactive)
SF-268
  GI50: 14.6 µM (inactive)
HOP-92
  GI50: 5.31 µM (inactive)
SK-MEL-5
  GI50: 16.3 µM (inactive)
NCI-H226
  GI50: 52.7 µM (inactive)
786-0
  GI50: 17.3 µM (inactive)
DU-145
  GI50: 40.6 µM (inactive)
IGROV-1
  GI50: 7.31 µM (inactive)
Hs-578T
  GI50: 10.4 µM (inactive)
Malme-3M
  GI50: 15.1 µM (inactive)
A498
  GI50: 23.1 µM (inactive)
SNB-75
  GI50: 34.8 µM (inactive)
KM12
  GI50: 40.8 µM (inactive)
HCT-116
  GI50: 37 µM (inactive)
OVCAR-4
  GI50: 34.4 µM (inactive)
MDA-N
  GI50: 4.16 µM (inactive)
CCRF-CEM
  GI50: 11 µM (inactive)
T47D
  GI50: 56 µM (inactive)
SNB-19
  GI50: 28 µM (inactive)
NCI-H23
  GI50: 36.7 µM (inactive)
SF-295
  GI50: 44.1 µM (inactive)
SK-OV-3
  GI50: 53.5 µM (inactive)
UACC-62
  GI50: 7.91 µM (inactive)
UACC-257
  GI50: 6.27 µM (inactive)
A549
  GI50: > 100 µM (inactive)
SK-MEL-28
  GI50: 9.33 µM (inactive)
HCT-15
  GI50: 6.24 µM
BT-549
  GI50: > 100 µM (inactive)
OVCAR-8
  GI50: 36.4 µM (inactive)
U-251
  GI50: 18.3 µM (inactive)
PC-3
  GI50: 29.4 µM (inactive)
HOP-62
  GI50: 77.3 µM (inactive)
CAKI-1
  GI50: 16.5 µM (inactive)
SR
  GI50: 6.79 µM (inactive)
EKVX
  GI50: 30.8 µM (inactive)
NCI/ADR-RES
  GI50: 31.3 µM (inactive)
MDA-MB-435
  GI50: 5.35 µM (inactive)
HCC 2998
  GI50: 35.4 µM (inactive)
UO-31
  GI50: 26.7 µM (inactive)
ACHN
  GI50: 16.4 µM (inactive)
RXF 393
  GI50: 7.31 µM (inactive)
SK-MEL-2
  GI50: 10.3 µM (inactive)
MDA-MB-231
  GI50: 18.7 µM (inactive)
OVCAR-3
  GI50: 11.8 µM (inactive)
MCF7
  GI50: 12.8 µM (inactive)
TK-10
  GI50: 24.8 µM (inactive)
HT-29
  GI50: 61.8 µM (inactive)
M14
  GI50: 11.9 µM (inactive)
OVCAR-5
  GI50: > 100 µM (inactive)
MOLT-4
  GI50: 9.71 µM (inactive)

## Cc1ccc(O)c(-c2cc(-c3cccc(Br)c3)c(C#N)c(N)n2)c1
NCI-H460
  GI50: 19.6 µM (inactive)
K562
  GI50: 21.8 µM (inactive)
COLO 205
  GI50: 18.5 µM (inactive)
RPMI-8226
  GI50: 11.5 µM (inactive)
SW-620
  GI50: 23.8 µM (inactive)
SN12C
  GI50: 21.5 µM (inactive)
SF-268
  GI50: 26.4 µM (inactive)
SK-MEL-5
  GI50: 19.2 µM (inactive)
NCI-H226
  GI50: 17.5 µM (inactive)
786-0
  GI50: 34.4 µM (inactive)
DU-145
  GI50: 29.6 µM (inactive)
IGROV-1
  GI50: 11.7 µM (inactive)
Hs-578T
  GI50: 25.5 µM (inactive)
HL-60
  GI50: 30 µM (inactive)
Malme-3M
  GI50: 23.5 µM (inactive)
KM12
  GI50: 19.2 µM (inactive)
HCT-116
  GI50: 20 µM (inactive)
OVCAR-4
  GI50: < 0.01 µM (active)
MDA-N
  GI50: 24.1 µM (inactive)
T47D
  GI50: 17.7 µM (inactive)
SNB-19
  GI50: 19.3 µM (inactive)
NCI-H23
  GI50: 33.7 µM (inactive)
SF-295
  GI50: 22.9 µM (inactive)
SK-OV-3
  GI50: 31.9 µM (inactive)
UACC-62
  GI50: 16.4 µM (inactive)
UACC-257
  GI50: 20.8 µM (inactive)
A549
  GI50: 27.6 µM (inactive)
HCT-15
  GI50: 12.9 µM
BT-549
  GI50: 37.2 µM (inactive)
OVCAR-8
  GI50: 32.3 µM (inactive)
U-251
  GI50: 17.3 µM (inactive)
PC-3
  GI50: 17.7 µM (inactive)
SF-539
  GI50: 29.1 µM (inactive)
LOX IMVI
  GI50: 16.3 µM (inactive)
HOP-62
  GI50: 34.6 µM (inactive)
CAKI-1
  GI50: 21.8 µM (inactive)
SR
  GI50: 19.3 µM (inactive)
EKVX
  GI50: 14.8 µM (inactive)
NCI/ADR-RES
  GI50: 45.9 µM (inactive)
NCI-H522
  GI50: 18.9 µM (inactive)
MDA-MB-435
  GI50: 16.3 µM (inactive)
HCC 2998
  GI50: 23.3 µM (inactive)
UO-31
  GI50: 20.4 µM (inactive)
ACHN
  GI50: 18.2 µM (inactive)
RXF 393
  GI50: 20.8 µM (inactive)
SK-MEL-2
  GI50: 20.7 µM (inactive)
MDA-MB-231
  GI50: 20.4 µM (inactive)
OVCAR-3
  GI50: 27.6 µM (inactive)
MCF7
  GI50: 16.3 µM (inactive)
TK-10
  GI50: 18.2 µM (inactive)
HT-29
  GI50: 23.9 µM (inactive)
M14
  GI50: 31.9 µM (inactive)
OVCAR-5
  GI50: 41.5 µM (inactive)
MOLT-4
  GI50: 20.1 µM (inactive)

## CC1(C)N=C(N)N=C(N)N1c1cccc(Cl)c1
NCI-H460
  GI50: 1.43 µM (inactive)
K562
  GI50: 3.66 µM (inactive)
COLO 205
  GI50: 5.35 µM (inactive)
SW-620
  GI50: > 100 µM (inactive)
SN12C
  GI50: 10.3 µM (inactive)
SF-268
  GI50: 1.14 µM (inactive)
HOP-92
  GI50: 42.5 µM (inactive)
SK-MEL-5
  GI50: 22.4 µM (inactive)
786-0
  GI50: 0.585 µM (active)
DU-145
  GI50: 17.4 µM (inactive)
IGROV-1
  GI50: 4.93 µM (inactive)
Hs-578T
  GI50: > 100 µM (inactive)
HL-60
  GI50: > 100 µM (inactive)
Malme-3M
  GI50: 9.82 µM (inactive)
A498
  GI50: > 100 µM (inactive)
SNB-75
  GI50: 25.6 µM (inactive)
KM12
  GI50: 7.98 µM (inactive)
HCT-116
  GI50: 0.461 µM (active)
OVCAR-4
  GI50: > 100 µM (inactive)
MDA-N
  GI50: 0.49 µM (active)
CCRF-CEM
  GI50: 3.76 µM (inactive)
T47D
  GI50: > 100 µM (inactive)
SNB-19
  GI50: > 100 µM (inactive)
NCI-H23
  GI50: 3.22 µM (inactive)
SF-295
  GI50: 1.83 µM (inactive)
SK-OV-3
  GI50: > 100 µM (inactive)
UACC-62
  GI50: 2.88 µM (inactive)
UACC-257
  GI50: 5.56 µM (inactive)
A549
  GI50: 2.41 µM (inactive)
SK-MEL-28
  GI50: > 100 µM (inactive)
HCT-15
  GI50: 10.5 µM
BT-549
  GI50: 6.71 µM (inactive)
U-251
  GI50: 1.36 µM (inactive)
PC-3
  GI50: > 100 µM (inactive)
SF-539
  GI50: 4.66 µM (inactive)
LOX IMVI
  GI50: 2.54 µM (inactive)
HOP-62
  GI50: 4.85 µM (inactive)
CAKI-1
  GI50: > 100 µM (inactive)
SR
  GI50: 1.73 µM (inactive)
EKVX
  GI50: > 100 µM (inactive)
NCI/ADR-RES
  GI50: 0.681 µM (active)
NCI-H522
  GI50: 5.87 µM (inactive)
MDA-MB-435
  GI50: 0.604 µM (active)
HCC 2998
  GI50: 14 µM (inactive)
UO-31
  GI50: 15.5 µM (inactive)
ACHN
  GI50: 5.21 µM (inactive)
RXF 393
  GI50: > 100 µM (inactive)
SK-MEL-2
  GI50: > 100 µM (inactive)
MDA-MB-231
  GI50: 61.8 µM (inactive)
OVCAR-3
  GI50: 22.4 µM (inactive)
MCF7
  GI50: 4.6 µM (inactive)
TK-10
  GI50: 91.2 µM (inactive)
HT-29
  GI50: 0.785 µM (active)
M14
  GI50: 0.877 µM (active)
OVCAR-5
  GI50: 9.12 µM (inactive)
